Assay results taken from US20060135461A1, “Reduction of hair growth” (priority 2004, published 2006).
Where a name gives a salt, the structure may show the parent alone. Read-outs that look alike come from different tables or passages of the source.

How the values were obtained:
[1] = system: flank organ hair growth; experiment: Golden Syrian Hamster Assay; type: in vivo; conditions: for % Inhibition: hair mass vs vehicle side; for Treated Side: hair mass
Excerpt: Golden Syrian Hamster Assay
Male intact Golden Syrian hamsters are considered acceptable models for human beard hair growth in that they display oval shaped flank organs, one on each side, each about 8 mm. in major diameter. These organs produce fine light colored hair typical of the animal pelage found on the body. In response to androgens the flank organs produce dark coarse hair similar to male human beard hair. To evaluate the effectiveness of a composition, the flank organs of each of a group of hamsters are depilated by applying a thioglycolate-based chemical depilatory (Surgex) and/or shaved. To one organ of each animal 10 μl of vehicle alone once a day is applied, while to the other organ of each animal an equal amount of vehicle containing a survivin inhibitor. After thirteen applications (one application per day for five days a week), the flank organs are shaved and the amount of recovered hair (hair mass) from each is weighed. For certain experiments, where indicated, the treatment period was for less than 13 applications. The reduced treatment period allowed for determination of onset in activity. Percent-reduction of hair growth is calculated by subtracting the hair mass (mg) value of the test compound treated side from the hair mass value of the vehicle treated side; the delta value obtained is then divided by the hair mass value of the vehicle treated side, and the resultant number is multiplied by 100. Visual evaluations comparing hair regrowth between the drug treated and the vehicle control site were made generally on day-8, day-15 and on day-19. These observations provide an identification of onset in activity (and thus efficacy).

[2] = system: human hair follicles; experiment: Human Hair Follicle Growth Assay; type: cell-based; conditions: for Length Increase (mm): follicle length day 6 minus day 0
Excerpt: Human Hair Follicle Growth Assay
Human skin was obtained from a plastic surgeon as a by-product of face-lift procedures. The skin samples generally consisted of haired and non-haired regions taken from the area of the face. Immediately after removal, the skin was placed in Williams E medium containing antibiotics, and kept refrigerated. The Williams E medium was commercially obtained (Life Technologies, Gaithersburg, Md.), and has been formulated with essential nutrients for maintaining viability of hair follicle in an in-vitro environment.
Human hair follicles in growth phase (anagen) were isolated from face-lift tissue under a dissecting scope using a scalpel and watchmakers forceps. The skin was sliced into thin strips exposing 2-3 rows of follicles that could readily be dissected. Follicles were placed into 0.5 ml Williams E medium supplemented with 2 mM L-glutamine, 10 ug/ml insulin, 10 ng/ml hydrocortisone, 100 units penicillin, 0.1 mg/ml streptomycin and 0.25 μg/ml amphotericin B. The follicles were incubated in 24 well plates (1 follicle/well) at 37° C. in an atmosphere of 5% CO2 and 95% air. Hair follicle images were taken in the 24-well plates under the dissecting scope under a power of 20×. Hair follicle lengths were measured on day 0 (day follicles were placed in culture) and again on day 6-7. In this system follicles appear to fully differentiate into a hair fiber and increase in length at a rate similar to the human, in vivo, rate of about 0.3 mm/day. For testing survivin inhibitors, the inhibitor was included in the culture medium from time 0 and remained in the medium throughout the course of the experiment.

[3] = system: survivin; experiment: Determination of Hair Follicle Survivin Protein Content by ELISA; type: cell-based, human; conditions: for Survivin Protein: human hair follicles in vitro, normalized to total protein; for Inhibition: survivin protein level
Protocol: Determination of Hair Follicle Survivin Protein Content by ELISA (Enzyme-Linked Immunosorbent Assay)
For protein extraction, 5-micron cryosections of the hair follicles were collected into the centrifuge tubes, followed by short time incubation with the lysis buffer (BD Bioscience; CA; Cat #K 1848-1). The solutions were centrifuged for 30 minutes at 14,000×g at 4° C., and the supernatants were frozen and stored at −80° C. For quantification of survivin protein, a commercially available ELISA kit was used, following the manufacturer's instructions (Assay Design Inc; Michigan; Cat # 900-111). Total protein concentration in the extracts was determined by using the bicinchoninic acid (BCA) protein assay (Pierce Chemical Company, Rockford; Cat #23225). The readings of optical density were performed, using EL340 Bio Kinetics microplate reader (Bio-Tek Instruments Inc). The survivin levels (in pg/ml) were normalized against the total amount of protein (in ug/ml) extracted from hair follicles.

[4] = 5% topical, vehicle 20% propylene glycol in ethanol
[5] = 10% topical, vehicle 10% DMSO in ethanol, water, emerest, and propylene glycol

SMILES: CC(Cc1ccc(OC(=O)CN(C)C)c(OC(=O)CN(C)C)c1)C(C)Cc1ccc(OC(=O)CN(C)C)c(OC(=O)CN(C)C)c1 [G4N, meso-1,4-bis[(3,4-dimethylaminoacetoxy)phenyl]-(2R,3S)-dimethylbutane hydrochloride salt]
- % Inhibition [1, 4]: 48 ± 6%
- Treated Side [1, 4]: 1.17 ± 0.2 mg
- Length Increase (mm) ([2]; G4N 20 uM in culture medium): 1.19 ± 0.11 mm
- Length Increase (mm) ([2]; G4N 50 uM in culture medium): 0.61 ± 0.14 mm
- inhibition at 20 µM ([2]; Homo sapiens, 144 h, 20 uM, hair growth vs control, day 6, read-out: % Inhibition): 30%
- inhibition at 50 µM ([2]; Homo sapiens, 144 h, 50 uM, hair growth vs control, day 6): 64%

SMILES: CC[C@H](CO)Nc1nc(NCc2ccccc2)c2ncn(C(C)C)c2n1 [Roscovitine, (R)-2-[[9-(1-methylethyl)-6-[(phenylmethyl)amino]-9H-purin-2-yl]amino]-1-butanol]
- Survivin Protein ([3]; 15 uM Roscovitine): 0.03 pg/mg
- Survivin Protein ([3]; 20 uM Roscovitine): 0.007 pg/mg
- Inhibition ([3]; 15 uM Roscovitine vs control): 62%
- Inhibition ([3]; 20 uM Roscovitine vs control): 95%
- Length Increase in mm ([2]; 10 uM Roscovitine in culture medium): 0.97 ± 0.13 mm
- Length Increase in mm ([2]; 15 uM Roscovitine in culture medium): 0.5 ± 0.1 mm
- Length Increase in mm ([2]; 20 uM Roscovitine in culture medium): 0.05 ± 0.05 mm
- inhibition at 10 µM ([2]; Homo sapiens, 10 uM Roscovitine vs control): 42%
- inhibition at 15 µM ([2]; Homo sapiens, 15 uM Roscovitine vs control): 60%
- inhibition at 20 µM ([2]; Homo sapiens, 20 uM Roscovitine vs control, read-out: Hair Growth Inhibition): 80%

SMILES: COc1cc([C@H]2Oc3cc([C@H]4Oc5cc(O)cc(O)c5C(=O)[C@@H]4O)ccc3O[C@@H]2CO)ccc1O [Silibinin, (2R,3R)-2-[(2R,3R)-2,3-dihydro-3-(4-hydroxy-3-methoxyphenyl)-2-(hydroxymethyl)-1,4-benzodioxin-6-yl]-2,3-dihydro-3,5,7-trihydroxy-4H-1-benzopyran-4-one]
- % Inhibition [1, 5]: 62.1 + 5.5%
- Treated Side [1, 5]: 0.77 ± .14 mg
